Data published in ChEMBL document CHEMBL1833803, “Discovery of 1-amino-5H-pyrido[4,3-b]indol-4-carboxamide inhibitors of Janus kinase 2 (JAK2) for the treatment of myeloproliferative disorders” (J Med Chem, 2011).

Tests used:
[1] = Selectivity ratio of IC50 for JAK3 to IC50 for JAK2
[2] = target: T1, Tyrosine-protein kinase JAK2 (Homo sapiens, UniProt O60674); assay: Inhibition of JAK2 using biotin-EQEDEPEGDYFEWLE- NH2 as substrate
[3] = Clearance in rat at 1 mg/kg, iv; format: ADME, organism-based; parameters: dose 1 mg/kg, route intravenous; details: in vivo
CYP2C9 = CYP2C9 (Homo sapiens, UniProt P11712); assay: Inhibition of CYP2C9 at 10 uM; format: ADME
Chain of CYP2C9 (P11712 whole entry): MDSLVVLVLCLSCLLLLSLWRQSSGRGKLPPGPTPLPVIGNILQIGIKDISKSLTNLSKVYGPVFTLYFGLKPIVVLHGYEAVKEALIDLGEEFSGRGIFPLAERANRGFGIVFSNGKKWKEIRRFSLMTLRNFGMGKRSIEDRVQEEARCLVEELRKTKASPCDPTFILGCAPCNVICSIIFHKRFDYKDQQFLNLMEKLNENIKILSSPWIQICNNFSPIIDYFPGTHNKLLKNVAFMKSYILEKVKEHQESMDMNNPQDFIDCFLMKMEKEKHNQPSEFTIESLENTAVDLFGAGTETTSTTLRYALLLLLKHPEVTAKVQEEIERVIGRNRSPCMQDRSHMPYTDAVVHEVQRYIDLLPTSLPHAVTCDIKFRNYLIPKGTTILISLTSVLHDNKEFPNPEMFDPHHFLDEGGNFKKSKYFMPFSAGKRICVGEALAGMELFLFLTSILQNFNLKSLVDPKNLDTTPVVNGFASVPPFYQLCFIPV

CYP3A4 = CYP3A4 (Homo sapiens, UniProt P08684); assay: Inhibition of CYP3A4 at 10 uM; format: ADME
Chain of CYP3A4 (P08684 whole entry): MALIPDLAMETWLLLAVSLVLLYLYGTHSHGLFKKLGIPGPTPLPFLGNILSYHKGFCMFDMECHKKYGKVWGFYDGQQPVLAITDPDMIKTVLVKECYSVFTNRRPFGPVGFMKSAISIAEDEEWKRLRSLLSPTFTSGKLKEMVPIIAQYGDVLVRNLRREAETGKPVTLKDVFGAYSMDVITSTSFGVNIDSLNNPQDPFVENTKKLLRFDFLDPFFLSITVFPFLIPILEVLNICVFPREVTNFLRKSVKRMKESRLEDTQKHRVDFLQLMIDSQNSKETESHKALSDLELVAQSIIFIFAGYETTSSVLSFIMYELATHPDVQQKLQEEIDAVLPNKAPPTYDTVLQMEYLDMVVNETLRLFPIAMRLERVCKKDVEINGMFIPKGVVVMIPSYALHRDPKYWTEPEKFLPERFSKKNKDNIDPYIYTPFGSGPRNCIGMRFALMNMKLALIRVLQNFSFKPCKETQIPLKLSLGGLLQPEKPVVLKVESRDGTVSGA

[4] = target: T2, Tyrosine-protein kinase JAK3 (Homo sapiens, UniProt P52333); assay: Inhibition of JAK3 using biotin-EQEDEPEGDYFEWLE- NH2 as substrate
T2 sequence (P52333 whole entry): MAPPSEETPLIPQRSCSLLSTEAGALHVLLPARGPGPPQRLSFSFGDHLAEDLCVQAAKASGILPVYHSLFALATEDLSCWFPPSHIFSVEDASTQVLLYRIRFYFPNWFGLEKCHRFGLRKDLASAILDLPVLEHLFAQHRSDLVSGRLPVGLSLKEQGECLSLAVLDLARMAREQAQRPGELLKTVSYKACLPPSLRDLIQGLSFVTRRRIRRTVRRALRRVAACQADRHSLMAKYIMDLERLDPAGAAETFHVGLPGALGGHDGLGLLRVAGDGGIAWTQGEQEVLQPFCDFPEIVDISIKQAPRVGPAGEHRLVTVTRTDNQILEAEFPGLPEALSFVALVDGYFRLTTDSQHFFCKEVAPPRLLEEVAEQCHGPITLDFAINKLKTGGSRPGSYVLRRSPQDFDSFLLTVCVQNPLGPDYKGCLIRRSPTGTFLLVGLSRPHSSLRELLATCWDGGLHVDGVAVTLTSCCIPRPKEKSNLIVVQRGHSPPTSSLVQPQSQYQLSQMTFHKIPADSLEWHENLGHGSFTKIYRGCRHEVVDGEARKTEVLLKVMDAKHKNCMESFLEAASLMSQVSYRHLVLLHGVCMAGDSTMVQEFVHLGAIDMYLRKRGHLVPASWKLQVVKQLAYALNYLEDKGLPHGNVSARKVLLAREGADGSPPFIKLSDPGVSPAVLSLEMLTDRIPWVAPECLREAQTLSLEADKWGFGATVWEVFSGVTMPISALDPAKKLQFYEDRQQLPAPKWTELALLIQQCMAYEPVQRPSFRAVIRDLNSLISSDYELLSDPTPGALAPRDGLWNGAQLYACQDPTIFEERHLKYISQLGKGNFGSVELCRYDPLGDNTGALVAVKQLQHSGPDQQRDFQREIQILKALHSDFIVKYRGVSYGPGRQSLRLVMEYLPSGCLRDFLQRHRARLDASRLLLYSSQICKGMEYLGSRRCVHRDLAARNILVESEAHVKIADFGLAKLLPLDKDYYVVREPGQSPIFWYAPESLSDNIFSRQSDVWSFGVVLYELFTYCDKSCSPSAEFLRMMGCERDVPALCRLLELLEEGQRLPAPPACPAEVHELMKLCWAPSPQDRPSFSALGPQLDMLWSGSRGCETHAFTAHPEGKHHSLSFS

[5] = target: T1, Tyrosine-protein kinase JAK2; assay: Inhibition of JAK2-mediated STAT5 phosphorylation in human HEL 92.1.7 irf1-bla cells; format: cell-based
[6] = target: Voltage-gated inwardly rectifying potassium channel KCNH2 (Homo sapiens, UniProt Q12809); assay: Inhibition of human hERG
Chain of Voltage-gated inwardly rectifying potassium channel KCNH2 (Q12809 whole entry): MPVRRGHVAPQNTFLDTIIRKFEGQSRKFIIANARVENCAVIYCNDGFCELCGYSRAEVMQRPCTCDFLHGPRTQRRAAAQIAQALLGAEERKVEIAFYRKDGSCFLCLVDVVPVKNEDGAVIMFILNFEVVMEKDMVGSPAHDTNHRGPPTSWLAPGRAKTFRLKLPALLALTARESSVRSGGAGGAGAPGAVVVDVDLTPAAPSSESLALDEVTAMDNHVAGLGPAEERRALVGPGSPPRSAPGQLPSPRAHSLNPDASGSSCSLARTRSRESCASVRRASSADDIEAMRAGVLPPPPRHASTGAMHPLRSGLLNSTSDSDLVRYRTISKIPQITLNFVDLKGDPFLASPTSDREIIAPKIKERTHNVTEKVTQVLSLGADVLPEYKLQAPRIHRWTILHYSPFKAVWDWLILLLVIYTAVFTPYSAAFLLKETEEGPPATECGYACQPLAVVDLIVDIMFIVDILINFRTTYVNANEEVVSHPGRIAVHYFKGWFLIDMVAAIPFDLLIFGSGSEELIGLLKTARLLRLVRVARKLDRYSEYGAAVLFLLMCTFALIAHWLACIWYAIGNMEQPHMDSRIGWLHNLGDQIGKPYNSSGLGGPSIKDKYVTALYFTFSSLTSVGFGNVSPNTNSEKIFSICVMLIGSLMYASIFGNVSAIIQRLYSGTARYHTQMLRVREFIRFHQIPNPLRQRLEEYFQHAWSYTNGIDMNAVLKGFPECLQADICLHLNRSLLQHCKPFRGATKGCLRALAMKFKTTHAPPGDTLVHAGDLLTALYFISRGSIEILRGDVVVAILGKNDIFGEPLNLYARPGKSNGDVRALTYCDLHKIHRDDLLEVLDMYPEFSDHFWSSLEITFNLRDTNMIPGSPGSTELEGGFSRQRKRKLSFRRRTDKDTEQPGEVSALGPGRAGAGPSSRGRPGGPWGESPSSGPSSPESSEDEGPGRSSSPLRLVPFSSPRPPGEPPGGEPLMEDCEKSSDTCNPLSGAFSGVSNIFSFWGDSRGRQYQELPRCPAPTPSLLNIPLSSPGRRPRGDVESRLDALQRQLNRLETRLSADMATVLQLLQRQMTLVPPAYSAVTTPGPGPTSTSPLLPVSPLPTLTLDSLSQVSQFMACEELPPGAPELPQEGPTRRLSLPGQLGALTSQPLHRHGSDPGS

T1 sequence (O60674 whole entry): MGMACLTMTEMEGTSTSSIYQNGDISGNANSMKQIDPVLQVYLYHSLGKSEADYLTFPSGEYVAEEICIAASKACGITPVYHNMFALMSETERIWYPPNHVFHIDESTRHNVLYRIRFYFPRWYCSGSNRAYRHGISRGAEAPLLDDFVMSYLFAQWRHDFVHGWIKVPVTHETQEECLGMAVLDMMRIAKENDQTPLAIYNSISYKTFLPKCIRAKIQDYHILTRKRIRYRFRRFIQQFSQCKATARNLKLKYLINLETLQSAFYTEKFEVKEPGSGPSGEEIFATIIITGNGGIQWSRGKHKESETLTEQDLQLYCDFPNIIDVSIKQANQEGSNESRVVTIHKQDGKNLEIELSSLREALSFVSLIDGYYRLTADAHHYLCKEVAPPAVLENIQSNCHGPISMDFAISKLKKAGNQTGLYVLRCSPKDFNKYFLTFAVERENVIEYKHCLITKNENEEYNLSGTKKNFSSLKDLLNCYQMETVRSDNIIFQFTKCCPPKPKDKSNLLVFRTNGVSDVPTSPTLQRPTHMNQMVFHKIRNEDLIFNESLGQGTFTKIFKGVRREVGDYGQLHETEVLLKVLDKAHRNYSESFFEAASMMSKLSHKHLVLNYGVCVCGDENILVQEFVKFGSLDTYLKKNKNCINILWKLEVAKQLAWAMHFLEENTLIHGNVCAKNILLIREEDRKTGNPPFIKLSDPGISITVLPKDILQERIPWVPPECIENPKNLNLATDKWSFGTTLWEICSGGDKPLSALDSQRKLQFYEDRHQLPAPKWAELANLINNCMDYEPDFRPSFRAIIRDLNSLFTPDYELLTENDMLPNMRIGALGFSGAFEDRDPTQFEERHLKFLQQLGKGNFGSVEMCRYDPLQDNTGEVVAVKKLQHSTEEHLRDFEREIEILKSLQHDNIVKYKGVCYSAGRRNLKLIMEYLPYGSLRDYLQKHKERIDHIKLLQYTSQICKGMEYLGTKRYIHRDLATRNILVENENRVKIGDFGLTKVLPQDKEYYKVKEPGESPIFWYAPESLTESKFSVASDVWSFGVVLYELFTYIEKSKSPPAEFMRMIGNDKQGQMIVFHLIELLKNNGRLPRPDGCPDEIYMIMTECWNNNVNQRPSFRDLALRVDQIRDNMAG

NC(=O)c1cnc(NC2CCCCC2)c2c1[nH]c1ccc(F)cc12
Ratio IC50 [1]: > 50 | IC50 [2]: 17 nM

NC(=O)c1cnc(NC(C2CC2)C2CC2)c2c1[nH]c1cc(-c3cn[nH]c3)ccc12
clearance [3]: 31 mL/min/kg | inhibition at 10 µM (CYP2C9): 80% | inhibition at 10 µM (CYP3A4): 66% | IC50 [2]: 3 nM | IC50 [4]: 220 nM | IC50 [5]: 40 nM

Cn1cc(-c2ccc3c(c2)[nH]c2c(C(N)=O)cnc(NC4CCCCC4)c23)cn1
IC50 [6]: 620 nM | Ratio IC50 [1]: > 50 | inhibition at 10 µM (CYP3A4): 75% | IC50 [2]: 5 nM

NC(=O)c1cnc(N[C@H](C2CC2)C(F)(F)F)c2c1[nH]c1cc(-c3ccc(N)nc3)ccc12
IC50 [6]: 750 nM | clearance [3]: 6 mL/min/kg | inhibition at 10 µM (CYP2C9): 41% | Ratio IC50 [1]: > 50 | inhibition at 10 µM (CYP3A4): 65% | IC50 [2]: 2 nM | IC50 [4]: 370 nM | IC50 [5]: 61 nM

CCCCNc1ncc(C(N)=O)c2[nH]c3ccc(F)cc3c12
Ratio IC50 [1]: > 50 | IC50 [2]: 49 nM

NC(=O)c1cnc(NC2CCCCC2)c2c1[nH]c1cc(-c3ccccc3)ccc12
Ratio IC50 [1]: > 50 | IC50 [2]: 70 nM

CCCNc1ncc(C(N)=O)c2[nH]c3ccc(F)cc3c12
Ratio IC50 [1]: > 50 | IC50 [2]: 68 nM

NC(=O)c1cnc(N2CCCCC2)c2c1[nH]c1ccc(F)cc12
Ratio IC50 [1]: > 50 | IC50 [2]: 190 nM

NC(=O)c1cnc(NC2CCCCC2)c2c1[nH]c1cc(Cl)ccc12
Ratio IC50 [1]: > 50 | IC50 [2]: 23 nM

NC(=O)c1cnc(NC2CCCCC2)c2c1[nH]c1cc(-c3cc[nH]n3)ccc12
IC50 [2]: 23 nM

NC(=O)c1cnc(NC2CCCC2)c2c1[nH]c1ccc(F)cc12
Ratio IC50 [1]: > 50 | IC50 [2]: 51 nM

NC(=O)c1cnc(NC2CCCCC2)c2c1[nH]c1cccc(Cl)c12
Ratio IC50 [1]: > 50 | IC50 [2]: 110 nM

CC(C)Cn1cc(-c2ccc3c(c2)[nH]c2c(C(N)=O)cnc(N[C@@H](C)C(C)(C)C)c23)cn1
Ratio IC50 [1]: > 50 | IC50 [2]: 41 nM

C[C@H](Nc1ncc(C(N)=O)c2[nH]c3cc(-c4ccnc(N)n4)ccc3c12)C(C)(C)C
Ratio IC50 [1]: > 50 | IC50 [2]: 12 nM

NC(=O)c1cnc(N[C@H](C2CC2)C(F)(F)F)c2c1[nH]c1cc(-c3ccc(N4CCS(=O)(=O)CC4)nn3)ccc12
clearance [3]: 54 mL/min/kg | Ratio IC50 [1]: > 50 | IC50 [2]: 2 nM | IC50 [4]: 160 nM | IC50 [5]: 120 nM

NC(=O)c1cnc(N[C@H](C2CC2)C(F)(F)F)c2c1[nH]c1cc(-c3cnc(N4CCOCC4)nc3)ccc12
clearance [3]: 15 mL/min/kg | Ratio IC50 [1]: > 50 | IC50 [2]: 8 nM | IC50 [4]: 430 nM | IC50 [5]: 530 nM

CCC(Nc1ncc(C(N)=O)c2[nH]c3cc(-c4cnn(C)c4)ccc3c12)C1CC1 (stereo unspecified)
Ratio IC50 [1]: > 50 | IC50 [2]: 2 nM | IC50 [4]: 170 nM | IC50 [5]: 45 nM

NC(=O)c1cnc(NC2CCCCC2)c2c1[nH]c1cc(-c3cn[nH]c3)ccc12
Ratio IC50 [1]: > 50 | IC50 [2]: 13 nM

CC(C)Nc1ncc(C(N)=O)c2[nH]c3ccc(F)cc3c12
Ratio IC50 [1]: > 50 | IC50 [2]: 100 nM

CNc1ncc(C(N)=O)c2[nH]c3ccc(F)cc3c12
Ratio IC50 [1]: > 50 | IC50 [2]: 210 nM

CCN(c1ncc(C(N)=O)c2[nH]c3ccc(F)cc3c12)C1CCCCC1
Ratio IC50 [1]: > 50 | IC50 [2]: 2700 nM

NC(=O)c1cnc(N[C@H](C2CC2)C(F)(F)F)c2c1[nH]c1cc(-c3cn[nH]c3)ccc12
clearance [3]: 21 mL/min/kg | inhibition at 10 µM (CYP2C9): 61% | inhibition at 10 µM (CYP3A4): 68% | IC50 [2]: 1 nM | IC50 [4]: 220 nM | IC50 [5]: 32 nM

NC(=O)c1cnc(NC2CCCCC2)c2c1[nH]c1ccccc12
Ratio IC50 [1]: > 50 | IC50 [2]: 59 nM

Cn1cc(-c2ccc3c(c2)[nH]c2c(C(N)=O)cnc(N[C@@H](C4CC4)C(F)(F)F)c23)cn1
IC50 [2]: 9 nM | IC50 [4]: 1900 nM | IC50 [5]: 530 nM

NC(=O)c1cnc(NC2CCOCC2)c2c1[nH]c1ccc(F)cc12
Ratio IC50 [1]: > 50 | IC50 [2]: 18 nM

NC(=O)c1cnc(N2CCCC2)c2c1[nH]c1ccc(F)cc12
Ratio IC50 [1]: > 50 | IC50 [2]: 230 nM

Cn1cc(-c2ccc3[nH]c4c(C(N)=O)cnc(NC5CCCCC5)c4c3c2)cn1
Ratio IC50 [1]: > 50 | IC50 [2]: 13 nM

Cn1cc(-c2ccc3c(c2)[nH]c2c(C(N)=O)cnc(N[C@H](C4CCC4)C(F)(F)F)c23)cn1
Ratio IC50 [1]: > 50 | IC50 [2]: 12 nM | IC50 [4]: 1700 nM | IC50 [5]: 350 nM

C[C@H](Nc1ncc(C(N)=O)c2[nH]c3cc(-c4ccc(N)nn4)ccc3c12)C(C)(C)C
Ratio IC50 [1]: > 50 | IC50 [2]: 10 nM

CC(C)[C@@H](Nc1ncc(C(N)=O)c2[nH]c3cc(-c4cnn(C)c4)ccc3c12)C(F)(F)F
Ratio IC50 [1]: > 50 | IC50 [2]: 3 nM | IC50 [4]: 560 nM

NC(=O)c1cnc(NC(C2CC2)C2CC2)c2c1[nH]c1cc(-c3cccnn3)ccc12
Ratio IC50 [1]: > 50 | IC50 [2]: 2 nM | IC50 [4]: 270 nM | IC50 [5]: 28 nM

NC(=O)c1cnc(NC2CCCCC2)c2c1[nH]c1cc(-c3ccn[nH]3)ccc12
Ratio IC50 [1]: > 50

CC(C)C(Nc1ncc(C(N)=O)c2[nH]c3cc(-c4cnn(C)c4)ccc3c12)C1CC1 (stereo unspecified)
Ratio IC50 [1]: > 50 | IC50 [2]: 3 nM | IC50 [4]: 210 nM | IC50 [5]: 95 nM

C[C@@H](Nc1ncc(C(N)=O)c2[nH]c3cc(-c4cnn(C)c4)ccc3c12)C1CC1
Ratio IC50 [1]: > 50 | IC50 [2]: 11 nM | IC50 [4]: 740 nM | IC50 [5]: 79 nM

C[C@@H](Nc1ncc(C(N)=O)c2[nH]c3ccc(F)cc3c12)C(C)(C)C
Ratio IC50 [1]: > 50 | IC50 [2]: 210 nM

NC(=O)c1cnc(NC2CCCCC2)c2c1[nH]c1ccc(-c3ccccc3)cc12
Ratio IC50 [1]: > 50 | IC50 [2]: 180 nM

NC(=O)c1cnc(NC2CCCCCC2)c2c1[nH]c1ccc(F)cc12
Ratio IC50 [1]: > 50 | IC50 [2]: 19 nM

C[C@H](Nc1ncc(C(N)=O)c2[nH]c3ccc(F)cc3c12)C(C)(C)C
Ratio IC50 [1]: > 50 | IC50 [2]: 52 nM

NC(=O)c1cnc(NC2CCC2)c2c1[nH]c1ccc(F)cc12
Ratio IC50 [1]: > 50 | IC50 [2]: 83 nM

NC(=O)c1cnc(NC(C2CC2)C2CC2)c2c1[nH]c1cc(-c3cnc(N)cn3)ccc12
IC50 [6]: 720 nM | inhibition at 10 µM (CYP2C9): 46% | Ratio IC50 [1]: > 50 | inhibition at 10 µM (CYP3A4): 65% | IC50 [2]: 4 nM | IC50 [4]: 640 nM | IC50 [5]: 100 nM

C[C@H](Nc1ncc(C(N)=O)c2[nH]c3cc(-c4ccc(Cl)nn4)ccc3c12)C(C)(C)C
Ratio IC50 [1]: > 50 | IC50 [2]: 14 nM

CC(C)CNc1ncc(C(N)=O)c2[nH]c3ccc(F)cc3c12
Ratio IC50 [1]: > 50 | IC50 [2]: 74 nM
